In the NIST ThermoML archive (doi:10.1021/je700693z):
Numbers after ± are expanded uncertainties.

Experiments:
[1] = for mass density: 298.15 K, 101.33 kPa, Liquid, Vibrating tube method
[2] = Molar enthalpy of transition or fusion; conditions: Crystal; DSC

Q: Which mass density [1] does the source give for `CCCC[n+]1ccn(CC)c1.O=S(=O)([N-]S(=O)(=O)C(F)(F)F)C(F)(F)F` here?
A: 1401.8 ± 14 kg/m3

Q: What about the Glass transition temperature ([1]; DTA) of the same molecule?
A: -92.2 ± 3 °C

Q: With `CCn1cc[n+](CC)c1.O=S(=O)([N-]S(=O)(=O)C(F)(F)F)C(F)(F)F` [1,3-diethylimidazolium bis[(trifluoromethyl)sulfonyl]imide] as the molecule, how does the mass density [1] read?
A: 1476 ± 15 kg/m3

Q: What about the Normal melting temperature ([1]; Crystal, DTA) of the same molecule?
A: -10.5 ± 0.4 °C

Q: What about the Glass transition temperature ([1]; DTA) of the same molecule?
A: -67.2 ± 3 °C

Q: And the “Molar enthalpy of transition or fusion” value [2]?
A: 20.4 ± 0.8 kJ/mol

Q: With `CCCC[n+]1ccn(CC)c1.F[P-](F)(F)(F)(F)F` [1-butyl-3-ethylimidazolium hexafluorophosphate] as the molecule, how does the mass density [1] read?
A: 1327.6 ± 12 kg/m3

Q: What about the Glass transition temperature ([1]; DTA) of the same molecule?
A: -80.2 ± 3 °C

Q: Which results are given for `CCCCCCn1cc[n+](CC)c1.O=S(=O)([N-]S(=O)(=O)C(F)(F)F)C(F)(F)F` [1-hexyl-3-ethylimidazolium bis(trifluoromethylsulfonyl)imide]?
A: mass density [1]: 1345.4 ± 13 kg/m3; Glass transition temperature ([1]; DTA): -88.3 ± 3 °C
